In the supplement of paper PMC10307832:

Assays:
Experiment in all cases: relative viability (nuclei count vs DMSO), 5 days (fraction); higher = more cells survive
[1] = compound: CN1CCN(CC1)C2=CC(=C(C=C2)NC3=NC(=C(S3)C(=O)C4=C(C=CC=C4Cl)Cl)N)OC [XMD14-99] + COc1cccc2cc(-c3nc([C@H]4CC[C@H](C(=O)O)CC4)n4ncnc(N)c34)[nH]c12 [OSI-027] (partner 0.5 µM)
Summary of the method: (§1)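 Relative viability divides the nuclei count in treated wells by that in vehicle wells. Lung cancer cell lines were seeded in 1536-well plates, dosed by pin tool the next day, and fixed and stained after 5 days in one step with final 0.05% Triton X-100, 1% formaldehyde and 1 ug/ml Hoechst. Dosing was a single drug or a fixed anchor-drug dose plus five library-drug doses (not always all listed) in √10 steps, and values are medians of duplicate plates imaged at 4×.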

[2] = compound: CN1CCN(CC1)C2=CC(=C(C=C2)NC3=NC(=C(S3)C(=O)C4=C(C=CC=C4Cl)Cl)N)OC [XMD14-99] + N=C(N)NC(=N)NCCc1ccccc1 [Phenformin] (partner 250 µM)
Summary of the method: as §1

[3] = compound: CN1CCN(CC1)C2=CC(=C(C=C2)NC3=NC(=C(S3)C(=O)C4=C(C=CC=C4Cl)Cl)N)OC [XMD14-99] + C[C@]1(O)C[C@@H](c2nc(-c3ccc4ccc(-c5ccccc5)nc4c3)c3c(N)nccn32)C1 [Linsitinib] (partner 1 µM)
Summary of the method: as §1

[4] = compound: N[C@@H]1CCCN(c2c(/C=C3\SC(=O)NC3=O)cccc2-c2ccccc2)C1 [AZD1208] + CCNC(=O)c1noc(-c2cc(C(C)C)c(O)cc2O)c1-c1ccc(CN2CCOCC2)cc1 [Luminespib] (partner 0.01 µM)
Summary of the method: as §1

| Cell Line | relative viability ([1]; first compound 0.08 µM) | relative viability ([1]; first compound 0.8 µM) | relative viability ([1]; first compound 2.53 µM) | relative viability ([1]; first compound 8 µM) | relative viability ([2]; first compound 0.08 µM) | relative viability ([2]; first compound 0.8 µM) | relative viability ([2]; first compound 2.53 µM) | relative viability ([2]; first compound 8 µM) | relative viability ([3]; first compound 0.08 µM) | relative viability ([3]; first compound 0.8 µM) | relative viability ([3]; first compound 2.53 µM) | relative viability ([3]; first compound 8 µM) | relative viability ([4]; first compound 0.08 µM) | relative viability ([4]; first compound 0.253 µM) | relative viability ([4]; first compound 0.8 µM) | relative viability ([4]; first compound 2.53 µM) | relative viability ([4]; first compound 8 µM) |
| --- | --- | --- | --- | --- | --- | --- | --- | --- | --- | --- | --- | --- | --- | --- | --- | --- | --- |
| COR-L23 | 0.796 | 0.724 | 0.561 | 0.406 | 0.446 | 0.418 | 0.372 | 0.301 | 0.865 | 0.806 | 0.891 | 0.478 | 0.585 | 0.749 | 0.529 | 0.721 | 0.508 |
| ABC-1 | 0.431 | 0.551 | 0.382 | 0.291 | 0.237 | 0.203 | 0.227 | 0.232 | 0.906 | 0.707 | 0.659 | 0.642 | 0.564 | 0.632 | 0.415 | 0.383 | 0.632 |
| SW 900 | 0.532 | 0.727 | 0.548 | 0.366 | 0.6 | 0.685 | 0.555 | 0.402 | – | – | – | – | 0.191 | 0.172 | 0.167 | 0.185 | 0.162 |
| PC-14 | 0.809 | 0.806 | 0.644 | 0.29 | 0.639 | 0.644 | 0.517 | 0.308 | 1.08 | 0.932 | 0.958 | 0.684 | 0.142 | 0.151 | 0.139 | 0.163 | 0.181 |
| NCI-H1648 | 0.268 | 0.25 | 0.231 | 0.227 | – | – | – | – | – | – | – | – | – | – | – | – | – |
| A549 | – | – | – | – | 0.153 | 0.16 | 0.0976 | 0.133 | 0.636 | 0.599 | 0.629 | 0.505 | – | – | – | – | – |
| A-427 | 0.457 | 0.421 | 0.401 | 0.311 | 0.431 | 0.31 | 0.259 | 0.231 | 1.15 | 1.08 | 1.01 | 0.904 | 0.788 | 1 | 0.829 | 0.762 | 0.712 |
| NCI-H1792 | 0.71 | 0.686 | 0.657 | 0.413 | 0.286 | 0.379 | 0.234 | 0.167 | 0.637 | 0.522 | 0.432 | 0.311 | 0.407 | 0.437 | 0.358 | 0.394 | 0.284 |
| LCLC-97TM1 | 0.412 | 0.452 | 0.555 | 0.442 | 0.431 | 0.414 | 0.466 | 0.355 | 0.162 | 0.157 | 0.141 | 0.176 | 0.829 | 0.754 | 0.604 | 0.632 | 0.727 |
| NCI-H1703 | – | – | – | – | – | – | – | – | 0.843 | 0.888 | 0.752 | 0.57 | – | – | – | – | – |
| LCLC-103H | 0.409 | 0.417 | 0.465 | 0.406 | 0.294 | 0.348 | 0.318 | 0.298 | 0.909 | 1.13 | 1 | 0.973 | 1.01 | 1.01 | 0.995 | 0.859 | 0.944 |
